Results taken from patent publication US7455998B2, “Methods for forming structurally defined organic molecules” (Dow Corning Corporation, priority 2004, dated 2008).

Legend:
[1] = Hydrolysis and condensation control reactions after three hours; settings: for condensation of trimethylethoxysilane (result in words): pH 7.0, 25° C., three hours
Description: Prior to reaction, the alkoxysilane was pre-treated with sodium hydrogencarbonate due to the potential presence of residual chloro-functional silanes. The reactions were formulated with a 4:1 trimethylethoxysilane to protein weight ratio (˜1000:l alkoxysilane to trypsin mole ratio) in neutral media (pH 7.0) and conducted at 25° C. for three hours.

[2] = Protease-catalyzed condensation study after three hours; type: biochemical
Description: In comparison to control reactions, the ability of the proteases detailed in Table 3 to catalyse siloxane condensation was screened with […]. Comparatively, the original reactions conducted in the enzyme-catalysed condensation study were performed for six days versus three hours in this study.
Prior to reaction, the glass vials were silylated. […].
TLCK inhibits trypsin by alkylating the histidine residue in the catalytic triad.

trypsin [3] = target: T1, trypsin (Bos taurus, UniProt P00760); test: Trypsin-catalyzed ring opening polymerization of cyclic siloxanes; type: biochemical, bovine; design: purchased Sigma-Aldrich #T4665; host or cells: bovine pancreas; settings: 25° C., pH 7.0, 8 days, qualitative GC; for Cyclic Area Percent, Pentamer (x = 5), Trypsin / Cyclic Area Percent, Tetramer (x = 4), Trypsin / Cyclic Area Percent, Trimer (x = 3), Trypsin: with trypsin; for Cyclic Area Percent, Pentamer (x = 5), Control / Cyclic Area Percent, Tetramer (x = 4), Control / Cyclic Area Percent, Trimer (x = 3), Control: without trypsin
T1 sequence (P00760 24-246): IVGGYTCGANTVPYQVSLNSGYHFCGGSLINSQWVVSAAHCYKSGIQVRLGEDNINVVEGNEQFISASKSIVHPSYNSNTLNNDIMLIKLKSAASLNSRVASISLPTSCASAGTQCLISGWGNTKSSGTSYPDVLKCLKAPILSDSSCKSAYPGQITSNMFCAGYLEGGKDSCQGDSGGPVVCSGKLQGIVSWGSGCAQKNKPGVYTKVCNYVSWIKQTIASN
Description: The ability of trypsin to catalyze the cleavage and formation of Si—O bonds during the ring opening polymerization of cyclic siloxanes was explored under mild conditions. Specifically, five cyclic siloxanes: hexamethylcyclotrisiloxane, octamethylcyclotetrasiloxane, trimethyltri(trifluoropropyl)cyclotrisiloxane, tetramethyltetra(trifluoropropyl)cyclotetrasiloxane, and tetramethyltetraphenylcyclotetrasiloxane, were selected to study how the activity of trypsin varied as a result of different steric and electronic interactions with the substrate.
The two-phase reactions were formulated with a 4:1 monomer to enzyme weight ratio and conducted at 25° C. in neutral media (pH 7.0) for 8 days. The reaction products were isolated and qualitatively analyzed by GC (Table 5).

trypsin [4] = target: T1, trypsin; test: Trypsin-catalyzed hydrolysis and condensation of alkoxysilanes; type: biochemical, bovine; design: purchased Sigma-Aldrich #T4665; host or cells: bovine pancreas; settings: 4:1 monomer to enzyme weight ratio, 25° C., three hours
[5] = Enzyme-catalyzed condensation study after six days; type: biochemical; settings: water, 25° C.
Description: This study was directed to an enzyme screen with […] in order to evaluate the ability of various enzymes to catalyze the formation of a siloxane bond. Based on the similarities of the proteins isolated from the Tethya aurantia marine sponge (silicatein), Cylindrotheca fusiformis diatom (silaffin), and Equisetum telmateia plant (biopolymer extract), a series of lipases and serine-proteases were selected as homologous proteolytic enzymes. […] […]. In this study, control reactions were defined as non-enzymatic reactions. Specifically, experiments conducted in the absence of a protein were defined as negative control reactions. Proteinaceous molecules such as bovine serum albumin and porcine γ-globulins were used to study non-specific protein catalysis.
[…]. […] (˜200 mg/mL).

[6] = Hydrolysis and condensation of trimethylethoxysilane by different sources of trypsin; effect of calcium; type: biochemical; settings: for increase of yield of the condensation of trimethylsilanol with calcium: 20 mM CaCl2, pH 7.0, 25° C., three hours; for hydrolysis of trimethylethoxysilane and condensation of trimethylsilanol (result in words): pH 7.0, 25° C.
Description: Although various sources (e.g. mammalian, fish) of trypsin are similar (e.g. tertiary structure), their selectivity and activity may be different. […] . The reaction products were isolated and quantitatively analysed by GC (FIG. 24).
Calcium activation of trypsin induces changes in the tertiary structure of the enzyme. […] . […] The reaction products were isolated and quantitatively analysed by GC (FIG. 25).

Molecule: [Ca+2].[Cl-].[Cl-] [CaCl2, calcium chloride]
- condensation of trimethylethoxysilane (result in words) [1]: not observed
- condensation of trimethylsilanol (result in words) ([2]; pH 7): not observed

Molecule: C[Si]1(CCC(F)(F)F)O[Si](C)(CCC(F)(F)F)O[Si](C)(CCC(F)(F)F)O[Si](C)(CCC(F)(F)F)O1 (centres unmarked) [D, tetramethyltetra(trifluoropropyl)cyclotetrasiloxane]
- Cyclic Area Percent, Pentamer (x = 5), Trypsin (trypsin [3]): (5.1)
- Cyclic Area Percent, Tetramer (x = 4), Trypsin (trypsin [3]): (94.9)
- Cyclic Area Percent, Trimer (x = 3), Trypsin (trypsin [3]): (0)
- Cyclic Area Percent, Pentamer (x = 5), Control (trypsin [3]): (3.4)
- Cyclic Area Percent, Tetramer (x = 4), Control (trypsin [3]): (96.3)
- Cyclic Area Percent, Trimer (x = 3), Control (trypsin [3]): (0.2)

Molecule: C[Si]1(c2ccccc2)O[Si](C)(c2ccccc2)O[Si](C)(c2ccccc2)O[Si](C)(c2ccccc2)O1 (centres unmarked) [E, tetramethyltetraphenylcyclotetrasiloxane]
- Cyclic Area Percent, Tetramer (x = 4), Trypsin (trypsin [3]): (100)
- Cyclic Area Percent, Tetramer (x = 4), Control (trypsin [3]): (100)

Molecule: CCO[Si](C)(C)c1ccccc1 [phenyldimethylethoxysilane]
- trypsin-catalyzed hydrolysis and condensation (result in words) (trypsin [4]): hydrolysed but not condensed

Molecule: poly-L-lysine
- hydrolysis of trimethylethoxysilane (result in words) ([1]; neutral medium (pH 7.0)): promoted the hydrolysis
- condensation of trimethylethoxysilane (result in words) [1]: not observed
- condensation of trimethylsilanol (result in words) ([2]; pH 7.0, three hours): not observed

Molecule: c1c[nH]cn1 [imidazole]
- condensation of trimethylethoxysilane (result in words) [1]: not observed
- condensation of trimethylsilanol (result in words) ([2]; pH 7.0, three hours): not observed

Molecule: CCO[Si](C)(C)CCCOCC1CO1 (centres unmarked) [3-glycidoxypropyldimethylethoxysilane]
- trypsin-catalyzed hydrolysis and condensation (result in words) (trypsin [4]): preferentially catalyze the hydrolysis and condensation

Molecule: C[Si]1(CCC(F)(F)F)O[Si](C)(CCC(F)(F)F)O[Si](C)(CCC(F)(F)F)O1 (centres unmarked) [C, trimethyltri(trifluoropropyl)cyclotrisiloxane]
- Cyclic Area Percent, Pentamer (x = 5), Trypsin (trypsin [3]): (1.0)
- Cyclic Area Percent, Tetramer (x = 4), Trypsin (trypsin [3]): (1.9)
- Cyclic Area Percent, Trimer (x = 3), Trypsin (trypsin [3]): (97.1)
- Cyclic Area Percent, Pentamer (x = 5), Control (trypsin [3]): (0.8)
- Cyclic Area Percent, Tetramer (x = 4), Control (trypsin [3]): (1.7)
- Cyclic Area Percent, Trimer (x = 3), Control (trypsin [3]): (97.5)

Molecule: CCCCCCO[Si](C)(C)C [trimethylhexoxysilane]
- trypsin-catalyzed hydrolysis and condensation (result in words) (trypsin [4]): catalyzed the partial hydrolysis of trimethylhexoxysilane without condensation

Molecule: C[Si]1(C)O[Si](C)(C)O[Si](C)(C)O1 [A, hexamethylcyclotrisiloxane]
- Cyclic Area Percent, Trimer (x = 3), Trypsin (trypsin [3]): (100)
- Cyclic Area Percent, Trimer (x = 3), Control (trypsin [3]): (100)

Molecule: Cc1ccc(S(=O)(=O)N[C@@H](CCCCN)C(=O)CCl)cc1.Cl [TLCK, N-α-p-tosyl-L-lysine chloromethyl ketone hydrochloride]
- product yield of the α-chymotrypsin condensation reaction after TLCK treatment ([2]; replicate condensation experiment): significantly decreased

Molecule: elastase: porcine pancreatic elastase
- condensation of trimethylsilanol (result in words) ([2]; pH 7.0, three hours): inactivity

Molecule: C[Si]1(C)O[Si](C)(C)O[Si](C)(C)O[Si](C)(C)O1 [B, octamethylcyclotetrasiloxane]
- Cyclic Area Percent, Tetramer (x = 4), Trypsin (trypsin [3]): (99.8)
- Cyclic Area Percent, Trimer (x = 3), Trypsin (trypsin [3]): (0.2)
- Cyclic Area Percent, Tetramer (x = 4), Control (trypsin [3]): (99.8)
- Cyclic Area Percent, Trimer (x = 3), Control (trypsin [3]): (0.2)

Molecule: CCO[Si](C)(C)CCCN [aminopropyldimethylethoxysilane]
- trypsin-catalyzed hydrolysis and condensation (result in words) (trypsin [4]): fully hydrolysed and condensed in the presence and absence of trypsin

Molecule: Cn1ccnc1 [N-methylimidazole]
- condensation of trimethylethoxysilane (result in words) [1]: not observed
- condensation of trimethylsilanol (result in words) ([2]; pH 7.0, three hours): not observed

Molecule: COCCOCCOCCOCCO[Si](C)(C)C [glycol-functional silane]
- trypsin-catalyzed hydrolysis and condensation (result in words) (trypsin [4]): not definitive

Molecule: C[Si]1(C)O[Si](C)(C)O[Si](C)(O)O[Si](C)(C)O1 [heptamethylhydroxytetracyclosiloxane]
- trypsin-catalyzed hydrolysis and condensation (result in words) (trypsin [4]): did not catalyze the condensation

B1: Rhizomucor miehei lipase: fungal lipase (protein, UniProt P19515 95-363, looked up)
Lipase: SIDGGIRAATSQEINELTYYTTLSANSYCRTVIPGATWDCIHCDATEDLKIIKTWSTLIYDTNAMVARGDSEKTIYIVFRGSSSIRNWIADLTFVPVSYPPVSGTKVHKGFLDSYGEVQNELVATVLDQFKQYPSYKVAVTGHSLGGATALLCALDLYQREEGLSSSNLFLYTQGQPRVGDPAFANYVVSTGIPYRRTVNERDIVPHLPPAAFGFLHAGEEYWITDNSPETVQVCTSDLETSDCSNSIVPFTSVLDHLSYFGINTGLCT
- condensation of trimethylsilanol, Water [5]: ✓ (determined to catalyse the condensation of greater than ten times more trimethylsilanol than the negative control reactions; as well as, greater than three or ten times more trimethylsilanol than the BSA reactions in organic and aqueous media, respectively)

B2: Candida antarctica lipase B: Candida antarctica lipase B immobilized on acrylic resin beads (protein, UniProt P41365 26-342, looked up)
Lipase B: LPSGSDPAFSQPKSVLDAGLTCQGASPSSVSKPILLVPGTGTTGPQSFDSNWIPLSTQLGYTPCWISPPPFMLNDTQVNTEYMVNAITALYAGSGNNKLPVLTWSQGGLVAQWGLTFFPSIRSKVDRLMAFAPDYKGTVLAGPLDALAVSAPSVWQQTTGSALTTALRNAGGLTQIVPTTNLYSATDEIVQPQVSNSPLDSSYLFNGKNVQAQAVCGPLFVIDHAGSLTSQFSYVVGRSALRSTTGQARSADYGITDCNPLPANDLTPEQKVAAAALLAPAAAAIVAGPKQNCEPDLMPYARPFAVGKRTCSGIVTP
modifications: immobilized on acrylic resin
notes: Candida antarctica lipase B immobilized on acrylic resin beads
- condensation of trimethylsilanol, Water [5]: ✓ (determined to catalyse the condensation of greater than ten times more trimethylsilanol than the negative control reactions; as well as, greater than three or ten times more trimethylsilanol than the BSA reactions in organic and aqueous media, respectively)

B3: recombinant bovine trypsin: Recombinant bovine trypsin expressed in maize (protein, UniProt P00760 24-246, looked up)
Serine protease 1: T1 sequence (P00760 24-246)
modifications: expressed in maize
- increase of yield of the condensation of trimethylsilanol with calcium [6]: 65%
- hydrolysis of trimethylethoxysilane and condensation of trimethylsilanol (result in words) [6]: catalysed the complete hydrolysis

B4: porcine pancreas trypsin: porcine pancreatic trypsin (protein, UniProt P00761 9-231, looked up)
Trypsin: IVGGYTCAANSIPYQVSLNSGSHFCGGSLINSQWVVSAAHCYKSRIQVRLGEHNIDVLEGNEQFINAAKIITHPNFNGNTLDNDIMLIKLSSPATLNSRVATVSLPRSCAAAGTECLISGWGNTKSSGSSYPSLLQCLKAPVLSDSSCKSSYPGQITGNMICVGFLEGGKDSCQGDSGGPVVCNGQLQGIVSWGYGCAQKNKPGVYTKVCNYVNWIQQTIAAN
- increase of yield of the condensation of trimethylsilanol with calcium [6]: 125%
- hydrolysis of trimethylethoxysilane and condensation of trimethylsilanol (result in words) [6]: catalysed the complete hydrolysis
- hydrolysis of trimethylethoxysilane and condensation of trimethylsilanol (result in words) ([6]; listed as trypsin from porcine pancreas): observed to catalyse the hydrolysis and condensation reactions
